Results as given in patent publication US5683668A, “Method of generating nitric oxide gas using nitric oxide complexes” (The United States of America as represented by the …, priority 1996, dated 1997).
Read-outs that look alike come from different tables or passages of the source.

Assays:
[1] = NO release half-life by disappearance of UV absorption in phosphate buffer; assay type: physicochemical
Method: Ultraviolet data were obtained in 0.01M NaOH to avoid this degradation problem. […] Kinetic data were obtained by diluting stock solutions (0.01M NaOH) of each compound with pH 7.4 phosphate buffer (0.1M) as needed to produce final solutions having compound concentrations in the range of 90-120 μM.

[2] = Equivalents of NO released at 22° C.; assay type: physicochemical
[3] = % NO by weight of the NO complexes; assay type: physicochemical
[4] = unless stored at -78° C.; prior art salts; cited from earlier work
[5] = % NO yield on acid release, thermal energy analyzer (TEA); assay type: physicochemical; conditions: weight percent of the theoretical maximum, dilute aqueous HCl
Method: NO gas was generated from compounds 2, 6, 10, 11, and 14 of Example 1, as well as H2 N(CH2)3 N[N(O)NO^- ](CH2)4 NH(CH2)3 NH3^+, using the procedure set forth below. The percent NO yield was then calculated for each of these NO adducts.
The apparatus comprises a first vessel 10 having an inlet 11 and an outlet 12 and contains mineral oil (or other heavy liquid) to prevent backflow. The outlet 12 of vessel 10 is connected to a first inlet 21 of second vessel 20, which also has a second inlet 22 and an outlet 23. The second vessel 20 contained either the solid NO complex or an aqueous solution of the NO complex. An addition funnel 30 is connected to the second inlet 22 of second vessel 20 so as to provide a means of introducing dilute aqueous HCl into second vessel 20. The outlet 23 of second vessel 20 is connected to the inlet 41 of condenser 40, and the outlet 42 of condenser 40 is connected to the inlet 51 of third vessel 50. The condenser 40 and third vessel 50 function to capture any mist carried through the apparatus in the gas stream. The outlet 52 of third vessel 50 is connected to drying towers 60 and 70 which contain desiccant such as calcium chloride or molecular sieves and contain an outlet 71 for gas passage.
In use, nitrogen gas was passed through the apparatus through the inlet 11 of first vessel 10 to flush oxygen from the apparatus. Acidic solution was then introduced into second vessel 20 by way of addition funnel 30, and NO gas was generated in second vessel 20. The thus generated NO gas flowed through the outlet 23 of second vessel 20, through the condenser 40, into the third vessel 50, into the drying towers 60 and 70, and out the […].
The NO gas released through the outlet 71 of drying column 70 was fed into a thermal energy analyzer (TEA), which generates a signal proportional to the quantity of NO gas present. The yield of NO gas, as a weight percent of the theoretical maximum, obtained for each of the compounds tested is given in Table III.

[6] = Stability of the adducts as solids; assay type: physicochemical; conditions: applicant's statements; room temperature, closed containers or air
[7] = NO gas yield measured volumetrically in a gas buret; assay type: physicochemical
Method: In a separate series of experiments, the generated gas was also collected in a gas buret and the yields were measured volumetrically. Yields ranged from 70-90% of theoretical. For example, when 1.0 g of CH3 N(N2 O2^-)CH2 CH2 NH3^+ was added to 5 ml concentrated H2 SO4, 285 ml NO gas (85%) was trapped in the buret.

[8] = Refrigerated storage stability by combustion analysis; assay type: physicochemical; conditions: refrigerator, several months
Text: Samples of compound 11 of Example 1 were stored in a refrigerator over the course of several months.

[9] = 22° C., pH 7.4, 0.1M phosphate buffer, read-out: t1/2
[10] = phosphate buffer, buffered aqueous solution, pH 7.4, 22° C., read-out: half-life (converted)

With `CCNCCN(CC)[N+]([O-])=NO` [Compound 8, 1-Hydroxy-2-oxo-3-(N-ethyl-2-aminoethyl)-3-ethyl-1-triazene] the half-life [1, 9] was 5.45 h, the “equivalents of NO released” value [2] was “two equivalents” and the “% NO By Wt.” value [3] was 34.1%.

For `CC(C)N/[N+]([O-])=N/O`, the “stability in the solid state” value [4] is listed as “slow decomposition even in the solid state unless stored at -78 °C”.

In the case of `CNCCCN(C)[N+]([O-])=NO` [Compound 3, 1-Hydroxy-2-oxo-3-(N-methyl-3-aminopropyl)-3-methyl-1-triazene], the half-life [1, 9] was 0.168 h and the half-life [1, 10] was 0.168 h.

For `NCCCNCCCCN(CCCN)[N+]([O-])=NO` [spermine/NO adduct], the “equivalents of NO released” value [2] was “two equivalents” and the “% NO Yield” value [5] was 95%.

For `NCCCCN(CCCN)[N+]([O-])=NO` [Compound 16, 1-Hydroxy-2-oxo-3-(3-aminopropyl)-3-(4-aminobutyl)-1-triazene], the half-life [1, 9] was 2.75 h and the stability as solid [6] was “hygroscopic”.

For `NCCCN(C1CCCCC1)[N+]([O-])=NO` [Compound 13, 1-Hydroxy-2-oxo-3-(3-aminopropyl)-3-cyclohexyl-1-triazene], the half-life [1, 9] was 1.92 h.

With `CCN(CCN)[N+]([O-])=NO` [Compound 7, 1-Hydroxy-2-oxo-3-(2-aminoethyl)-3-ethyl-1-triazene] the half-life [1, 9] was 5.55 h, the half-life [1, 10] was 5.55 h and the “% NO By Wt.” value [3] was 40.5%.

With `CNCCN(C)[N+]([O-])=NO` [Compound 2, 1-Hydroxy-2-oxo-3-(N-methyl-2-aminoethyl)-3-methyl-1-triazene] the half-life [1, 9] was 0.602 h, the half-life [1, 10] was 0.602 h and the “equivalents of NO released” value [2] was “two equivalents”. The “% NO By Wt.” value [3] was 40.5% and the “% NO Yield” value [5] was 98%.

`NCCCN(CCCN)[N+]([O-])=NO` [Compound 15, 1-Hydroxy-2-oxo-3,3-di(3-aminopropyl)-1-triazene] gave a half-life [1, 9] of 4.73 h.

With `CC(C)NCCCN(C(C)C)[N+]([O-])=NO` [Compound 12, 1-Hydroxy-2-oxo-3-(N-isopropyl-3-aminopropyl)-3-isopropyl-1-triazene] the half-life [1, 9] was 1.48 h.

In the case of `CN(CCN)[N+]([O-])=NO` [Compound 6, 1-Hydroxy-2-oxo-3-(2-aminoethyl)-3-methyl-1-triazene], the half-life [1, 9] was 0.667 h, the half-life [1, 10] was 0.667 h and the “equivalents of NO released” value [2] was “two equivalents”. The “% NO By Wt.” value [3] was 45%, the “% NO By Wt.” value ([3]; listed as CH3 N(N2 O2^-)CH2 CH2 NH3^+) was 44.7% and the “% NO Yield” value [5] was 110%. The “volume of NO gas trapped” value ([7]; 1.0 g adduct added to 5 ml concentrated H2 SO4) was 285 mL and the “volumetric NO yield” value ([7]; percent of theoretical, gas buret) was 85%.

In the case of `CCN(CC)[N+]([O-])=NO` [CH3 CH2 N(N2 O2^-)CH2 CH3.Na^+, reference compound], the “% NO By Wt.” value [3] was 38.7%.

Molecule `CNCCCCN(C)[N+]([O-])=NO` [Compound 4, 1-Hydroxy-2-oxo-3-(N-methyl-4-aminobutyl)-3-methyl-1-triazene] has a half-life [1, 9] of 0.0217 h and a half-life [1, 10] of 0.0217 h.

In the case of `CC(C)N(CCCN)[N+]([O-])=NO` [Compound 1, 1-Hydroxy-2-oxo-3-(3-aminopropyl)-3-isopropyl-1-triazene], the half-life [1, 9] was 1.55 h.

For `NCCN(CCN)[N+]([O-])=NO` [Compound 14, 1-Hydroxy-2-oxo-3,3-di (2-aminoethyl)-1-triazene], the half-life [1, 9] was 56.7 h, the “half-life (in words)” value ([1]; comparison between adducts differing in R' or type) was “too stable to permit monitoring over a sufficient number of half-lives” and the “half-life relative to the diethylamine/NO adduct” value ([1]; fold over diethylamine/NO adduct) was “over 200 times”. The half-life [1, 10] was 56 h, the “equivalents of NO released” value [2] was “two equivalents” and the “% NO By Wt.” value [3] was 36.8%. For the same molecule, the “% NO Yield” value [5] was 97%.

In the case of `CCCN(CCCN)[N+]([O-])=NO` [Compound 11, 1-Hydroxy-2-oxo-3-(3-aminopropyl)-3-propyl-1-triazene], the half-life [1, 9] was 1.28 h, the “equivalents of NO released” value [2] was “two equivalents” and the “% NO Yield” value [5] was 110%. For the same molecule, the “change in elemental composition on storage” value [8] was “no change in elemental composition was observed”.

In the case of `CCNCCCN(CC)[N+]([O-])=NO` [Compound 10, 1-Hydroxy-2-oxo-3-(N-ethyl-3-aminopropyl)-3-ethyl-1-1-triazene], the half-life [1, 9] was 1.2 h and the “% NO Yield” value [5] was 100%.

In the case of `CC(C)N(CCCN)[N+]([O-])=NO.CC(C)NCCCN`, the stability as solid [6] was “not stable enough to obtain combustion analytical data”.

For `CCN(CC)[N+]([O-])=NO` [DEA/NO], the “stability in the solid state” value [4] is listed as “slow decomposition even in the solid state unless stored at -78 °C”.

With `CNCCCCCCN(C)[N+]([O-])=NO` [Compound 5, 1-Hydroxy-2-oxo-3-(N-methyl-6-aminohexyl)-3-methyl-1-triazene] the half-life [1, 9] was 0.045 h.

Molecule `CN(CCCN)[N+]([O-])=NO` [Compound 9, 1-Hydroxy-2-oxo-3-(3-aminopropyl)-3-methyl-1-triazene] has a half-life [1, 9] of 0.228 h.
